From patent publication US20130096332A1, “METHOD FOR INCREASING THE CONTENT OF DOCOSAHEXAENOIC ACID IN FAT-CONTAINING MATERIALS OR IN FATS AND OILS” (NIPPON SUISAN KAISHA, LTD., priority 2007, published 2013)

Experiments:
Assay type in all cases: cell-based
[1] = system: strain mh295, microorganism classified into Labyrinthulae; experiment: Determination of DHA amount with C19:0 internal standard, strain mh295; settings: from ratio of peak area to C19:0 internal standard, control 0.45
Protocol: (§1) Thirty three strains of microorganisms which were isolated from mangrove woods or sea water around Ishigaki City, Okinawa Prefecture and classified into Labyrinthulae, were cultured in a GY medium (prepared according to the method as described in “NIPPON SUISAN GAKKAISHI” vol. 68, no. 5, 674-678 (2002); GY medium containing 3% glucose and 1% yeast extract was prepared with 50% artificial sea water and adjusted to pH 6.0; this was used as a liquid medium or a plate medium with 1.5% agar) at 28° C. for 4 days, to which was added 1μg/ml of curcumin (Nacalai Tesque, Inc.) as an inhibitor for a Δ6-fatty acid desaturase. […] The resulting total lipid was subjected to methanolysis with 10% hydrogen chloride/methanol solution, and the fatty acid composition was analyzed by gas chromatography (Shimadzu Corp.; Model GC-2014). […]
(§2) To the total lipid (about 40 mg) which was extracted from the cells cultured in Examples 1 and 2 was added 0.5mg of nonadecanoic acid (C19:0) as an internal standard substance; then, the fatty acid composition after methanolysis with 10% hydrogen chloride/methanol solution was analyzed by gas chromatography (Shimadzu Corp.; Model GC-2014). From the ratio of the peak area of each fatty acid including DHA to that of C19:0, the amount of each fatty acid was determined.

[2] = system: strain mh313, microorganism classified into Labyrinthulae; experiment: DHA percentage of fatty acid composition (gas chromatography) after culture with desaturase inhibitor, strain mh313; settings: GY medium, 28° C., 4 days, inhibitor added to medium (curcumin 1μg/ml), control 26.03
Protocol: (§3) Thirty three strains of microorganisms which were isolated from mangrove woods or sea water around Ishigaki City, Okinawa Prefecture and classified into Labyrinthulae, were cultured in a GY medium (prepared according to the method as described in “NIPPON SUISAN GAKKAISHI” vol. 68, no. 5, 674-678 (2002); GY medium containing 3% glucose and 1% yeast extract was prepared with 50% artificial sea water and adjusted to pH 6.0; this was used as a liquid medium or a plate medium with 1.5% agar) at 28° C. for 4 days, to which was added 1μg/ml of curcumin (Nacalai Tesque, Inc.) as an inhibitor for a Δ6-fatty acid desaturase. After termination of the culture, the microorganism was collected by centrifugal separation (1500×g, 10 min), and the cells were destroyed by ultra-sonication and extracted by chloroform/methanol (2:1; by v/v) to yield the total lipid. The resulting total lipid was subjected to methanolysis with 10% hydrogen chloride/methanol solution, and the fatty acid composition was analyzed by gas chromatography (Shimadzu Corp.; Model GC-2014). In a control, the same operation as mentioned above was made with no addition of curcumin. […]

[3] = system: strain mh314, microorganism classified into Labyrinthulae; experiment: Determination of DHA amount with C19:0 internal standard, strain mh314; settings: from ratio of peak area to C19:0 internal standard, control 0.21
Protocol: as §1, §2

[4] = system: strain mh375, microorganism classified into Labyrinthulae; experiment: Determination of DHA amount with C19:0 internal standard, strain mh375; settings: from ratio of peak area to C19:0 internal standard, control 0.39
Protocol: as §1, §2

[5] = system: strain mh375, microorganism classified into Labyrinthulae; experiment: DHA percentage of fatty acid composition (gas chromatography) after culture with desaturase inhibitor, strain mh375; settings: GY medium, 28° C., 4 days, inhibitor added to medium (curcumin 1μg/ml), control 26.02
Protocol: as §3

[6] = system: microorganism classified into Labyrinthulae; experiment: Content of docosahexaenoic acid in fats and oils produced versus control (summary statements); settings: culture with inhibitor versus no inhibitor
Protocol: as §1, §2

[7] = system: strain mh295, microorganism classified into Labyrinthulae; experiment: DHA percentage of fatty acid composition (gas chromatography) after culture with desaturase inhibitor, strain mh295; settings: GY medium, 28° C., 4 days, inhibitor added to medium (curcumin 1μg/ml), control 19.19
Protocol: as §3

[8] = system: strain mh313, microorganism classified into Labyrinthulae; experiment: Determination of DHA amount with C19:0 internal standard, strain mh313; settings: from ratio of peak area to C19:0 internal standard, control 0.56
Protocol: as §1, §2

[9] = system: strain mh314, microorganism classified into Labyrinthulae; experiment: DHA percentage of fatty acid composition (gas chromatography) after culture with desaturase inhibitor, strain mh314; settings: GY medium, 28° C., 4 days, inhibitor added to medium (curcumin 1μg/ml), control 13.27
Protocol: as §3

SMILES	amount of DHA [1]	percentage of the peak area of docosahexaenoic acid [2]	amount of DHA [3]	amount of DHA [4]	percentage of the peak area of docosahexaenoic acid [5]	content of docosahexaenoic acid in the fats and oils produced, in comparison with that of the control [6]	percentage of the peak area of docosahexaenoic acid [7]	amount of DHA [8]	percentage of the peak area of docosahexaenoic acid [9]
c1cc2c(cc1[C@H]1OC[C@H]3[C@@H]1CO[C@@H]3c1ccc3c(c1)OCO3)OCO2 [Example 2, sesamin]	0.98 g/L	42.32%	0.82 g/L	0.64 g/L	29.96%	significantly increased	21.47%	1.45 g/L	22.31%
COc1cc(/C=C/C(=O)CC(=O)/C=C/c2ccc(O)c(OC)c2)ccc1O [Example 1, curcumin]	0.67 g/L	31.05%	0.66 g/L	1 g/L	33.77%	significantly increased	22.32%	0.71 g/L	27.23%
